Reference: US20140031217A1, “HERBICIDAL COMPOSITIONS COMPRISING 4-AMINO-3-CHLORO-5-FLUORO-6-(4-CHLORO-2-FLUORO-3-METHOXYPHENYL)PYRIDINE-2-CARBOXYLIC ACID OR A DERIVATIVE THEREOF AND AUXIN TRANSPORT INHIBITORS” (DOW AGROSCIENCES LLC, priority 2012, published 2014)

Columns and labels:
[1] = system: ECHCG; test: Postemergence foliar-applied greenhouse weed control, ECHCG; assay type: in vivo, Echinochloa crusgalli (L.) Beauv.; settings: 20 DAA
Excerpt: (§1) Seeds or nutlets of the desired test plant species were planted in a soil matrix prepared by mixing a loam or sandy loam soil (e.g., 28.6 percent silt, 18.8 percent clay, and 52.6 percent sand, with a pH of about 5.8 and an organic matter content of about 1.8 percent) and calcareous grit in an 80 to 20 ratio. The soil matrix was contained in plastic pots with a volume of 1 quart and a surface area of 83.6 square centimeters (cm^2). When required to ensure good germination and healthy plants, a fungicide treatment and/or other chemical or physical treatment was applied. The plants were grown for 8-22 days in a greenhouse with an approximate 14 h photoperiod which was maintained at about 29° C. during the day and 26° C. during the night. Nutrients (Peters Excel® 15-5-15 5-Ca 2-Mg and iron chelate) were applied in the irrigation solution as needed and water was added on a regular basis. Supplemental lighting was provided with overhead metal halide 1000-Watt lamps as necessary. The plants were employed for testing when they reached the first through fourth true leaf stage.
(§2) Treatments consisted of the acid or esters of 4-amino-3-chloro-5-fluoro-6-(4-chloro-2-fluoro-3-methoxy-phenyl) pyridine-2-carboxylic acid (Compound A), each formulated as an SC (suspension concentrate), and various herbicidal components alone and in combination. Forms of compound A were applied on an acid equivalent basis.
(§3) Other herbicidal components were applied on an active ingredient basis and included auxin transport inhibiting (ATI) herbicides chlorflurenol (technical material), chlorflurenol-methyl (technical material), diflufenzopyr (technical material), diflufenzopyr sodium (technical material), flurenol-methyl (technical material) and naptalam (technical material).
(§4) Treatment requirements were calculated based upon the rates being tested, the concentration of active ingredient or acid equivalent in the formulation, and a 12 mL application volume at a rate of 187 L/ha.
(§5) For treatments comprised of formulated and technical compounds, weighed amounts of the technical materials were placed individually in 25 mL glass vials and dissolved in a volume of 97:3 v/v acetone/DMSO to obtain 12× stock solutions, and measured amounts of the formulated compounds were placed individually in 25 mL glass vials and diluted in a volume of 1.5% (v/v) crop oil concentrate or water to obtain 12× stock solutions. […] Application solutions were prepared by adding an appropriate amount of each stock solution (e.g., 1 mL) and diluted to the appropriate final concentrations with the addition of an appropriate amount of an aqueous mixture of 1.5% (v/v) crop oil concentrate so that the final spray solutions contained 1.25% (v/v) crop oil concentrate. When required, additional water and/or 97:3 v/v acetone/DMSO was added to individual application solutions so that the final acetone and DMSO concentrations of the application solutions being compared were 8.1% and 0.25%, respectively.
(§6) All stock solutions and applications solutions were visually inspected for compound compatibility prior to application. Spray solutions were applied to the plant material with an overhead Mandel track sprayer equipped with an 8002E nozzle calibrated to deliver 187 L/ha over an application area of 0.503 m^2 at a spray height of 18 to 20 inches (46 to 50 cm) above average plant canopy height. Control plants were sprayed in the same manner with the solvent blank.
(§7) The treated plants and control plants were placed in a greenhouse as described above and watered by sub-irrigation to prevent wash-off of the test compounds. After approximately 3 weeks, the condition of the test plants as compared with that of the untreated plants was determined visually and scored on a scale of 0 to 100 percent where 0 corresponds to no injury or growth inhibition and 100 corresponds to complete kill. […]

[2] = system: LEFCH; test: Postemergence foliar-applied greenhouse weed control, LEFCH; assay type: in vivo, Leptochloa chinensis (L.) Nees
Excerpt: as §1, §2, §3, §4, §5, §6, §7

Row | Structure (SMILES) | Visual Weed Control (%) Obs ([1]; 4.38 gae/ha) | Visual Weed Control (%) Obs ([1]; 8.75 gae/ha) | Visual Weed Control (%) Obs ([2]; 20 DAA, 4.38 gae/ha) | Visual Weed Control (%) Obs ([2]; 20 DAA, 8.75 gae/ha) | Visual Weed Control (%) Obs ([2]; 20 DAA, 17.5 gae/ha) | Visual Weed Control (%) Obs ([2]; 21 DAA, 8.75 gae/ha) | Visual Weed Control (%) Obs ([2]; 21 DAA, 17.5 gae/ha) | Visual Weed Control (%) Obs ([2]; 21 DAA, 4.38 gae/ha) | Visual Weed Control (%) Obs ([2]; 22 DAA, 32 gae/ha)
1 | COc1c(Cl)ccc(-c2nc(C(=O)O)c(Cl)c(N)c2F)c1F [Compound A Acid, 4-amino-3-chloro-6-(4-chloro-2-fluoro-3-methoxyphenyl)-5-fluoropyridine-2-carboxylic acid] | 60% | 80% | 0% | 30% | 30% | 30% | 30% |  | 
2 | COc1c(Cl)ccc(-c2nc(C(=O)OCc3ccccc3)c(Cl)c(N)c2F)c1F [Compound A Benzyl Ester] | 60% |  | 15% | 30% |  | 40% | 50% | 15% | 40%
